From PMC4426631, “Insect antimicrobial peptides show potentiating functional interactions against Gram-negative bacteria” (Proceedings of the Royal Society B: Biological Sciences, 2015)
Entries after “also recorded” stand apart in the source; their conditions may differ. Ends that are not written are not given here. Peptide text beside a SMILES is read from it. * marks the point of attachment. 5FAM = O=C1OC2(c3ccc(O)cc3Oc3cc(O)ccc32)c2ccc(C(=O)*)cc21; Cf = 5(6)-carboxyfluorescein

Columns and labels:
E. coli DnaK [1] = target: T1, E. coli DnaK (Escherichia coli, UniProt P0A6Y8); assay: FRET quenching peptide–protein interaction assay with DnaK–BHQ10; type: binding; conditions: 2 h, n = 3; for DnaK interaction / binding-curve shape, in words / Kd not determinable: pH 7.4; for Kd not determinable: DnaK–BHQ10 quenching, peptide N-terminal carboxyfluorescein, C-terminal amide
T1 sequence (P0A6Y8 whole entry): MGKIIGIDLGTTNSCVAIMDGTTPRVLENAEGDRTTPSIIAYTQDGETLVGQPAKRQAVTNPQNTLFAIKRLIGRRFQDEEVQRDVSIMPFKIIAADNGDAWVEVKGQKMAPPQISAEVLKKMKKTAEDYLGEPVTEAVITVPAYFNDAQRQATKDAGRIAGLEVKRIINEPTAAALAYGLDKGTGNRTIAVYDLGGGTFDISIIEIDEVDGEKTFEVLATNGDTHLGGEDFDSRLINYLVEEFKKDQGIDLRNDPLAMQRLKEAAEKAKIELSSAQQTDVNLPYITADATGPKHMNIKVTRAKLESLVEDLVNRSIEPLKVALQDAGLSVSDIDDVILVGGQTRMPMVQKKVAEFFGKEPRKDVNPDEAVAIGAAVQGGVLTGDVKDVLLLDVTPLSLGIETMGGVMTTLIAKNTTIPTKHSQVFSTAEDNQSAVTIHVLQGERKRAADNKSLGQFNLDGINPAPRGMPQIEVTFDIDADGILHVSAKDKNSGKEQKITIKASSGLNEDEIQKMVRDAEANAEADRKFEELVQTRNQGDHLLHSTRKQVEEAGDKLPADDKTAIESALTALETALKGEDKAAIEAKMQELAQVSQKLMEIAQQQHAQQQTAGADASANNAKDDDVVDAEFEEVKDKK
Protocol: DnaK, produced by Michael Zahn, was dialysed against modifying buffer (20 mmol l^−1 Na2HPO4, 20 mmol l^−1 KH2PO4, 5 mmol l^−1 MgCl2, 150 mmol l^−1 KCl, pH 7.4) as previously described and 2 mg ml^−1 were labelled with a 10-fold molar excess of BHQ10-NHS-ester, followed by supplementary dialysis to remove excess BHQ10.
As previously described, the fluorescein-modified peptides (50 μl, 1.3 nmol l^−1) and a serial dilution of DnaK–BHQ10 in modification buffer (50 μl, 0.8–13 000 nmol l^−1, 1 : 4 dilution series) were mixed in a black 384-well plate and incubated for 2 h. To calculate the quenching effect, a control was measured in five replicates consisting of 50 μl of peptide solution and 50 μl of modification buffer. The fluorescence intensity was recorded on a Paradigm fluorescence reader using a fluorescence intensity (fluo-rhod) detection cartridge (excitation wavelength = 485 ± 10 nm; emission wavelength = 535 ± 12.5 nm; integration time = 140 ms). The quenching effect was defined as the percentage of the fluorescence intensity of the control quenched after the addition of DnaK–BHQ10. Kd values were determined as described in the electronic supplementary material. […]
i) Peptide synthesis and modification.
The peptide sequences shown in Tabl es S1 an d S4 were selected according to their repo rted […]
(Carmel, USA), respectively. The m ature peptide sequences were based on data from closel y-related species and EST information derived from B. terrestris. Other peptides were s ynthesized b y PANATecs (Tübingen, Germ an y) . All peptides were l yoph ilized for storage, and were resuspended and diluted in double-distilled water, which was used as the zero peptide […]
metchnikowin 1 and 2 (Drosophila melanogaster) peptides were modified by the N -terminal addition of 5(6 )-carbox yfluorescein and C -terminal amidation for the quenching assa y. Bombus pascuorum h ymenoptaecin was modified b y the addition of an N-terminal p yroglutamate. The Black Hole Quencher 10 succinimidyl ester (BHQ10-NHS-ester, >75% purit y) was obtained from BioCat (H eidelber g, German y). […]

E. coli DnaK [2] = target: T1, E. coli DnaK; conditions: ref [51]; cited from earlier work
[3] = tested on: substrate-binding domain of DnaK; conditions: co-crystal structures; ref [58]; cited from earlier work
From the text: Normally, the characteristic sequence stretch YL/IPRP is positioned in the DnaK substrate-binding cleft, with a leucine or isoleucine residue occupying the central hydrophobic pocket. Additional hydrophobic binding sites preceding the central pocket are occupied by the conserved tyrosine residue and another, preferentially hydrophobic amino acid residue, defined as posi ...

E. coli = tested on: E. coli; set-up: method as in PMID 6396089; conditions: following treatment with H. cecropia attacin; ref [15]; cited from earlier work
[4] = fluorescein-modified peptide 1.3 nmol l−1, DnaK–BHQ10 0.8–13 000 nmol l−1

| Compound | DnaK interaction / binding-curve shape, in words (E. coli DnaK [1]; [4]) | Kd not determinable (E. coli DnaK [1]) | other results |
| --- | --- | --- | --- |
| CC[C@H](C)[C@H](NC(=O)[C@H](CCCCN)NC(=O)[C@@H]1CCCN1C(=O)[C@H](CC(N)=O)NC(=O)[C@H](Cc1ccccc1)NC(=O)[C@@H]1CCCN1C(=O)CNC(=O)[C@H](Cc1c[nH]cn1)NC(=O)CNC(=O)[C@@H]1CCCN1C(=O)[C@H](Cc1ccccc1)NC(=O)[C@H](CO)NC(=O)[C@@H]1CCCN1C(=O)[C@H](Cc1ccccc1)NC(=O)[C@@H]1CCCN1C(=O)[C@H](CCCCN)NC(=O)[C@H](CO)NC(=O)[C@H](CCC(N)=O)NC(=O)CNC(=O)[C@@H]1CCCN1C(=O)[C@H](CCCNC(=N)N)NC(=O)[C@@H]1CCCN1C(=O)[C@@H]1CCCN1C(=O)[C@H](CC(N)=O)NC(=O)[C@H](Cc1ccc(O)cc1)NC(=O)[C@@H]1CCCN1C(=O)[C@@H](NC(=O)[C@H](Cc1ccccc1)NC(=O)c1ccc2c(c1)C(=O)OC21c2ccc(O)cc2Oc2cc(O)ccc21)C(C)C)C(=O)N[C@@H](CCC(N)=O)C(=O)N[C@@H](Cc1c[nH]c2ccccc12)C(=O)N1CCC[C@H]1C(=O)N[C@@H](Cc1ccc(O)cc1)C(=O)N1CCC[C@H]1C(=O)N[C@@H](CC(C)C)C(=O)N1CCC[C@H]1C(=O)N[C@@H](CC(N)=O)C(=O)N1CCC[C@H]1C(=O)NCC(=O)N[C@@H](Cc1c[nH]cn1)C(N)=O [B. pascuorum abaecin] (5FAM-FVPYNPPRPGQSKPFPSFPGHGPFNPKIQWPYPLPNPGH-NH2) |  |  | maximum quenching effect (binding efficacy) (E. coli DnaK [1]; fluorescein-modified peptide 1.3 nmol l−1, DnaK–BHQ10 0.8–13 000 nmol l−1, buffer pH 7.4, fluorescence): 74% |
| Cf-PQPRPPHPRL-OH [apidaecin 1b (#9–18)] | small increase in control readouts with increasing probe concentration |  | DnaK interaction of control peptide, in words (E. coli DnaK [2]): interacts minimally with DnaK |
| Pyrrhocoricin: proline-rich DnaK-binding AMP (VDKGSYLPRPTPPRPIYNRN; ends and bridges not checked; UniProt P37362 1-20, looked up) |  |  | DnaK binding orientation [3]: can bind to DnaK in both of the above orientations |
| cecropin B: Hyalophora cecropia cecropin B (KWKVFKKIEKMGRNIRNGIVKAGPAIAVLGEAKAL; ends and bridges not checked; UniProt P01508 27-61, looked up) |  |  | sensitivity of E. coli towards cecropin B following attacin (E. coli): enhanced |
| drosocin: proline-rich DnaK-binding AMP (GKPRPYSPRPTSHPRPIRV; ends and bridges not checked; UniProt P36193 22-40, looked up) |  |  | DnaK binding orientation [3]: a proline residue near the C-terminus of drosocin occupies the central pocket |
| metalnikowin I: proline-rich AMP from Palomena prasina (Cf-VDKPDYRPRPRPPNM-NH2) | do not interact significantly with bacterial DnaK | No Kd values could be determined; also recorded: not possible to assign a Kd value |  |
| metchnikowin 1: proline-rich AMP from Drosophila melanogaster (Cf-HRHQGPIFDTRPSPFNPNQPRPGPIY-NH2) | do not interact significantly with bacterial DnaK | No Kd values could be determined; also recorded: not possible to assign a Kd value |  |
| metchnikowin 2: proline-rich AMP from Drosophila melanogaster (Cf-HRRQGPIFDTRPSPFNPNQPRPGPIY-NH2) | do not interact significantly with bacterial DnaK | No Kd values could be determined; also recorded: not possible to assign a Kd value |  |
